The source made the active and inactive calls.
Experiments:
[1] = target: T1, Microphthalmia-associated transcription factor (Homo sapiens, UniProt O75030); assay: reducers of TRPM1 reporter luminescence, concentration series – cell-based, SK-MEL-5, cherry-picked, set 3, MITF inhibitor project, dose response (AID 493073); assay type: functional;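 note: SK-MEL-5 melanoma cells with luciferase driven by the MITF target TRPM1 promoter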
T1 sequence (O75030 whole entry): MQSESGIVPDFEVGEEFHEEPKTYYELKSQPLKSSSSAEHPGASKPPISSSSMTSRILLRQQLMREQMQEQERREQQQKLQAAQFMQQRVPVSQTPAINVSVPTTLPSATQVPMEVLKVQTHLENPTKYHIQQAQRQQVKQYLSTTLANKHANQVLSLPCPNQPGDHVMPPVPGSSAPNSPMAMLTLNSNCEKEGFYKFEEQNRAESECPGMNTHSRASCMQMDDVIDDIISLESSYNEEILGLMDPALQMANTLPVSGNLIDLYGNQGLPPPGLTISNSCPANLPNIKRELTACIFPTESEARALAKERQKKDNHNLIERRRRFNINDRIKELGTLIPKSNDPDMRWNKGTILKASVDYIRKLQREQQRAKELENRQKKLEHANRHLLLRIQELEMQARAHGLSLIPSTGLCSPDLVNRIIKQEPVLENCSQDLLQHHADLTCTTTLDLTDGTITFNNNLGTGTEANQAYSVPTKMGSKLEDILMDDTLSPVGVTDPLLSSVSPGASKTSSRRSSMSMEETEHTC

cells [2] = assay type: functional, cell-based
cells [3] = assay type: functional, cell-based; remark: listed apart in the source
cells [4] = assay type: functional
Protein skinhead-1 = target: T2, Protein skinhead-1 (Caenorhabditis elegans, UniProt P34707); assay type: functional
T2 sequence (P34707 whole entry): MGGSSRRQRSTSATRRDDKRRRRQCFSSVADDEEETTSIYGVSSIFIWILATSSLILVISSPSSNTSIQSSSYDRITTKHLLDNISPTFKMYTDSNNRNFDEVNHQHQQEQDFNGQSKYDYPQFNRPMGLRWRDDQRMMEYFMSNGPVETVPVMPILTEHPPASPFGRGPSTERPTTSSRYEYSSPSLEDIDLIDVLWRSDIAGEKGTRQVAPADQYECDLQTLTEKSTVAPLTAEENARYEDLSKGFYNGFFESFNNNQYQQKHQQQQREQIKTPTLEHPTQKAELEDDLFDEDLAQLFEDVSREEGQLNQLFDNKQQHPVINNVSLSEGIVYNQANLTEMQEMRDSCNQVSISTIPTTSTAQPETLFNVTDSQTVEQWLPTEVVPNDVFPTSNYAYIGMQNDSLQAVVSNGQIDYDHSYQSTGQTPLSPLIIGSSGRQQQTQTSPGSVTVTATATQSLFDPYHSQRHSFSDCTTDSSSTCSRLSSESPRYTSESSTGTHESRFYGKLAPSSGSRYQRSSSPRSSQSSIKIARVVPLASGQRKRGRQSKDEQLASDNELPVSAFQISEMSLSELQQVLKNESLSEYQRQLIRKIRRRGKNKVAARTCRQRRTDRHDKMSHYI

[5] = target: T3, Heat shock factor protein 1 (Mus musculus, UniProt P38532); assay: decrease of HSF1-responsive luciferase luminescence – cell-based, NIH3T3, dose retest, confirmation (AID 2382); assay type: functional;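 note: NIH3T3 fibroblasts with HSF1-driven luciferase reporter stressed by proteasome inhibitor MG132; luminescence from HSF1-driven luciferase expression after 8 hours of MG132 stress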
T3 sequence (P38532 whole entry): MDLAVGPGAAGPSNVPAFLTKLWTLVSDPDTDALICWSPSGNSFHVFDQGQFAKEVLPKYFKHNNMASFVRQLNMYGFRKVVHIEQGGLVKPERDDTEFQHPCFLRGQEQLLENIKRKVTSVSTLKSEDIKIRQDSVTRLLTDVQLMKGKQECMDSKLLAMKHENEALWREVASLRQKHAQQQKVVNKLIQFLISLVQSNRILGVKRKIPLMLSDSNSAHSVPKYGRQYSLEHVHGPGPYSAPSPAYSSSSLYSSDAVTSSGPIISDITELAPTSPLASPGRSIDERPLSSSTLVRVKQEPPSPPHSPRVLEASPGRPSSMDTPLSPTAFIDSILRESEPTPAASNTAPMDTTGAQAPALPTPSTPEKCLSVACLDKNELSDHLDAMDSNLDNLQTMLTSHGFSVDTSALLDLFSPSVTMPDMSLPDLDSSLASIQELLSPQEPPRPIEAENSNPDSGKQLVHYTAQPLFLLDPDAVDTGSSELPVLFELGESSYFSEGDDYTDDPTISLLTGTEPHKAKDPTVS

[6] = target: Glucose-6-phosphate 1-dehydrogenase (Homo sapiens, UniProt P11413); assay: inhibition of Homo sapiens G6PD, dose series – biochemical, fluorescence, selectivity assay for P. falciparum G6PD inhibitor project, dose response (AID 504792); assay type: functional
Prothrombin = Prothrombin (Homo sapiens, UniProt P00734); assay: Thrombin 1536 HTS Dose Response Confirmation. [Related pubchem assays: 1046 (Thrombin 1536 HTS; hits were confirmed in this assay)]; assay type: functional
[7] = target: T4, Trace amine-associated receptor 1 (Homo sapiens, UniProt Q96RJ0); assay: Fluorescence-based cell-based high throughput dose response assay to identify agonists of the human trace amine associated receptor 1 (TAAR1).; assay type: functional
T4 sequence (Q96RJ0 whole entry): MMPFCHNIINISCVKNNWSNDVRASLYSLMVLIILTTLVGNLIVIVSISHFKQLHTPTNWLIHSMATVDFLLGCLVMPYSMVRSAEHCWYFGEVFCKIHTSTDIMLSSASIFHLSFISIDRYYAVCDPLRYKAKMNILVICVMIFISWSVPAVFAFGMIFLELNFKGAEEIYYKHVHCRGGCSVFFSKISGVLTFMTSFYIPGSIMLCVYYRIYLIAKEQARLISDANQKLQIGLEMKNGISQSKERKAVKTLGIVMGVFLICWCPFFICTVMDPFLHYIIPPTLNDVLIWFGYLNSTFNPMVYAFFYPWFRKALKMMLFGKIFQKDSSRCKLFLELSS

[8] = target: T4, Trace amine-associated receptor 1; assay: Counterscreen for agonists of the human trace amine associated receptor 1 (hTAAR1): Fluorescence-based cell-based high throughput dose response assay to identify hTAAR1 agonist that also desensitize TAAR1 receptor response.; assay type: functional
[9] = target: Luciferin 4-monooxygenase (Photinus pyralis, UniProt P08659); assay: inhibition of purified Photinus pyralis luciferase – biochemical, luminescence, dose response (AID 1891)
[10] = Luminescence Cell-Based Dose Confirmation HTS to Identify Inhibitors of Platelet Dense Granule Release. [Related pubchem assays: 1663 (Primary HTS), 1678 (Summary of Project)]; assay type: functional
[11] = Trypanosoma cruzi growth suppression in host cells – NIH3T3 host cells, beta-gal luminescence, confirmation (AID 2044); assay type: functional, cell-based;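 note: intracellular parasites grown in NIH/3T3 mouse fibroblasts as host cells; luminescent beta-galactosidase reporter signal from transgenic T. cruzi replicating inside host cells; inhibitors lower the luminescence signal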
[12] = NIH3T3 cell viability loss – ATP luminescence, mouse fibroblasts, counter-screen, dose response (AID 2010); assay type: functional, cell-based;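 note: cells exposed to compound for about 90 hours before reading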
[13] = Luminescence Cell-Based Dose Retest to Confirm Inhibitors of Cancer Stem Cells. [Related pubchem assays (depositor defined):AID2717, AID2721]; assay type: functional; settings: Homo sapiens
P388/ADR = assay: cells; assay type: functional; settings: Mus musculus
P388 = assay: cells; assay type: functional; settings: Mus musculus
SN12K1 = assay: cells; assay type: functional; settings: Homo sapiens
[14] = P. falciparum Dd2 growth inhibitors, dose response, SYBR Green, cherry-picked samples (AID 1159567); assay type: functional, cell-based

Chain of Glucose-6-phosphate 1-dehydrogenase (P11413 whole entry): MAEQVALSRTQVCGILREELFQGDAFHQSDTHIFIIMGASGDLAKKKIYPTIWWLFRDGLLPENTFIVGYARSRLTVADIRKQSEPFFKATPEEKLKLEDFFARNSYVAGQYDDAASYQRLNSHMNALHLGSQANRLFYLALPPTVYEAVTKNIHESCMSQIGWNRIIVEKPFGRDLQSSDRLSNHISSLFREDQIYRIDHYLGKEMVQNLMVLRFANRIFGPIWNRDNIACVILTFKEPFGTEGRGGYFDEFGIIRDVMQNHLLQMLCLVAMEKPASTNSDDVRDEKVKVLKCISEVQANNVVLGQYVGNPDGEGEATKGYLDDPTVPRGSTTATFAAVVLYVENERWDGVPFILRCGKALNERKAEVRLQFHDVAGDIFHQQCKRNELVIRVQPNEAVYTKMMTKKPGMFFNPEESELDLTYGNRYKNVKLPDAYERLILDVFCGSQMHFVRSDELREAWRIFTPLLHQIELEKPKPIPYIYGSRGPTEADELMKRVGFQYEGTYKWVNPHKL
Chain of Luciferin 4-monooxygenase (P08659 whole entry): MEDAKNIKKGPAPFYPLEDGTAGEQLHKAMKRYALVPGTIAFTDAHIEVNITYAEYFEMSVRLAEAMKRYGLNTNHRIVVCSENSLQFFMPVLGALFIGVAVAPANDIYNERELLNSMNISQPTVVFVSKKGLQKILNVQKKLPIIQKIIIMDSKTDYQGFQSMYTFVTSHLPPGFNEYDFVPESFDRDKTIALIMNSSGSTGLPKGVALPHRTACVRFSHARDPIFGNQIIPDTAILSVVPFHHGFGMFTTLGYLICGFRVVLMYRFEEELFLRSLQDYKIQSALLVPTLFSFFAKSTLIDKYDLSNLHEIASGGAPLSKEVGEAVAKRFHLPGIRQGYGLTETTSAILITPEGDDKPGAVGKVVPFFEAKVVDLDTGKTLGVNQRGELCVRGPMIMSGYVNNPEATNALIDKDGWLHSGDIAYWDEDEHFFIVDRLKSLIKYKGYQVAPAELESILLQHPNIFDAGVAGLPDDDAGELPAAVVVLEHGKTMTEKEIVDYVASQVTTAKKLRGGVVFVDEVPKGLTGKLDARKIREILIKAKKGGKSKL

In the case of `Cc1cnc(NC(=O)c2nn(C)cc2[N+](=O)[O-])s1`, the AC50 [1] is reported as 20.6 µM (active).

In the case of `CC(C)=N/N=C(\N)SCc1ccccc1`, the IC50 (cells [2]) is reported as > 29.9 µM (inactive) and the EC50 (cells [3]) is reported as > 29.9 µM (inactive).

With `Cc1ccc(-c2nnc(SCC#CCOC(=O)c3ccco3)o2)cc1` the IC50 (cells [4]) was 4.78 µM (active).

In the case of `Brc1ccc(-c2csc(-c3ccncc3)n2)cc1`, the IC50 (Protein skinhead-1) is reported as 51.6 µM (inactive).

In the case of `NCCN1C(=O)S/C(=C\c2ccc3c(c2)OCO3)C1=O`, the EC50 [5] is reported as 1.48 µM (active) and the AC50 [1] is reported as 22.3 µM (active).

For `COc1ccc(CC(=O)Nc2cc(S(=O)(=O)N3CCOCC3)ccc2N2CCOCC2)cc1`, the IC50 (Protein skinhead-1) was > 100 µM (inactive).

With `O=C(O)CCc1ccc(-c2ccccc2)n1NC(=O)c1ccco1` the IC50 (Protein skinhead-1) was > 100 µM (inactive).

With `COc1ccc(C2(CNC(=O)c3ccc(OC)c([N+](=O)[O-])c3)CCCCC2)cc1OC` the IC50 [6] was 60.7 µM (inactive).

For `CCOc1ccccc1C(=O)Nc1nnc(SCC(=O)N2CCOCC2)s1`, the IC50 (Prothrombin) was > 50 µM (not active).

With `CCNC1=NN=C(c2cc(C)n(CCc3ccccc3)c2C)CS1` the IC50 (cells [2]) was > 29.9 µM (inactive), the EC50 [7] was 0.373 µM (active) and the IC50 [8] was 1.06 µM (active). The EC50 (cells [3]) was > 29.9 µM (inactive).

With `N#C/C(=C\c1ccc(F)cc1)c1nc(-c2ccco2)cs1` the IC50 (Protein skinhead-1) was > 100 µM (inactive).

In the case of `CC(C)(C)NC(=O)c1cc([N+](=O)[O-])ccc1N1CCCCC1`, the IC50 (Prothrombin) is reported as > 50 µM (not active).

In the case of `Clc1ccc(-c2nc3cc[nH]cc-3n2)cc1`, the EC50 [9] is reported as 1 µM (active), the EC50 [10] is reported as 10 µM (active) and the IC50 (cells [2]) is reported as > 29.9 µM (inactive). For the same compound, the EC50 [7] was > 29.9 µM (inactive), the IC50 [8] was > 29.9 µM (inactive) and the EC50 (cells [3]) was > 29.9 µM (inactive).

For `Cc1ccc2sc(N(CCCN(C)C)C(=O)c3ccc(S(=O)(=O)N(C)C4CCCCC4)cc3)nc2c1C`, the EC50 [11] was 0.148 µM (active), the EC50 [12] was 10.3 µM (active) and the AC50 [13] was 3.72 µM (active). The AC50 [1] was 18 µM (active).

With `CCC(=O)NC(=S)Nc1cccc(NC(=O)c2ccccc2)c1` the IC50 (Prothrombin) was > 50 µM (not active).

In the case of `CN(C)c1ccc(C=c2c3ccccc3n3c2c2ccccc2[n+]3C)cc1`, the IC50 [6] is reported as > 80 µM (inactive).

For `CC[C@@H](C)[C@H]([C@H](CC(=O)N1CCC[C@@H]1[C@@H](OC)[C@H](C)C(=O)N[C@H](Cc1ccccc1)c1nccs1)OC)N(C)C(=O)[C@H](NC(=O)[C@@H](C(C)C)N(C)C)C(C)C`, the GI50 (P388/ADR) was 0.000425 µM (active) and the GI50 (P388) was 0.000425 µM (active).

In the case of `CSc1nc2c(ncn2C2OC(CO)C(O)C(O)C2O)c(=O)n1C` (stereo unspecified), the GI50 (P388/ADR) is reported as > 10 µM (inactive), the GI50 (SN12K1) is reported as > 100 µM (inactive) and the GI50 (P388) is reported as > 100 µM (inactive).

With `O=NN1C(c2ccccc2)C2CCCC(C2=O)C1c1ccccc1` (stereo unspecified) the GI50 (P388/ADR) was 22.5 µM (inactive), the GI50 (SN12K1) was 26.5 µM (inactive) and the GI50 (P388) was 36.3 µM (inactive).

In the case of `O=[N+]([O-])c1ccc(/C=C/c2ccc(/N=N/c3ccc(/C=C/c4ccc([N+](=O)[O-])cc4S(=O)(=O)O)c(S(=O)(=O)O)c3)cc2S(=O)(=O)O)c(S(=O)(=O)O)c1`, the GI50 (P388/ADR) is reported as > 100 µM (inactive), the GI50 (SN12K1) is reported as > 100 µM (inactive) and the GI50 (P388) is reported as > 100 µM (inactive).

With `COC1/C=C/O[C@@]2(C)Oc3c(C)c(O)c4c(O)c(cc(O)c4c3C2=O)NC(=O)/C(C)=C\C=C\[C@H](C)C(O)[C@@H](C)[C@@H](O)[C@@H](C)[C@H](OC(C)=O)[C@@H]1C` (stereo partly specified) the GI50 (P388/ADR) was 10.9 µM (inactive), the GI50 (SN12K1) was 15.2 µM (inactive) and the GI50 (P388) was 5.41 µM (inactive).

With `COC(=O)[C@@]12C[C@@H](CC(=O)NCCc3ccccc3OC)C(=O)N(Cc3ccc4c(c3)OCO4)C1=CCC(C)(C)C2` the IC50 (cells [2]) was > 29.9 µM (inactive), the EC50 [7] was 2.4 µM (active) and the IC50 [8] was 6.93 µM (active). For the same compound, the EC50 (cells [3]) was > 29.9 µM (inactive).

In the case of `O=C(NC(c1ccc(-c2ccccc2)cc1)c1cnccn1)C1CCN(Cc2cccs2)CC1` (stereo unspecified), the IC50 (Protein skinhead-1) is reported as > 100 µM (inactive).

With `O=C(N[C@H](C(=O)N1CCC[C@H]1C(=O)NCCc1ccccc1Cl)C1CCCCC1)c1ccccc1` the IC50 (cells [2]) was > 29.9 µM (inactive), the EC50 [7] was 5.2 µM (active) and the IC50 [8] was 5.04 µM (active). The EC50 (cells [3]) was > 29.9 µM (inactive).

In the case of `CCOC(=O)N[C@H](C(=O)N1CCC[C@H]1C(=O)NCCc1ccccc1Cl)C1CCCCC1`, the IC50 (cells [2]) is reported as > 29.9 µM (inactive), the EC50 [7] is reported as 1.91 µM (active) and the IC50 [8] is reported as 2.33 µM (active). For the same compound, the EC50 (cells [3]) was > 29.9 µM (inactive).

In the case of `Oc1nncc(N/N=C/c2ccccc2)c1Cl`, the IC50 (cells [2]) is reported as > 29.9 µM (inactive), the EC50 [7] is reported as 0.29 µM (active) and the IC50 [8] is reported as 0.981 µM (active). For the same compound, the EC50 (cells [3]) was > 29.9 µM (inactive).

In the case of `CCS(=O)(=O)N1CC(=O)N2[C@H](CO)[C@@H](c3ccc(-c4ccccc4F)cc3)[C@@H]2C1`, the AC50 [14] is reported as 13.6 µM (active).

For `COc1ccc(CN2C[C@@H](C)[C@@H](OC)CN(C)C(=O)c3cc(NC(=O)c4nc5ccccc5s4)ccc3OC[C@H]2C)cc1`, the AC50 [14] was 6.65 µM (active).

In the case of `COc1ccc2c3c([nH]c2c1)[C@H](CO)N(Cc1ccccc1)CC31CCN(CC2CC2)CC1`, the AC50 [14] is reported as 2.62 µM (active).

For `CCCCCCCCCCCCCCCCCCOCC(COP(=O)([O-])OCC[N+](C)(C)C)OC` (stereo unspecified) [EDELFOSINE], the GI50 (P388/ADR) was 4.07 µM (inactive), the GI50 (SN12K1) was 11.2 µM (inactive) and the GI50 (P388) was 2.65 µM (inactive).

From ChEMBL document CHEMBL1201862, “PubChem BioAssay data set” (2004)
